Active and inactive are the calls of the source. A value given as a limit tells only on which side of the number the result lay.

In assay [1] the target is Glyceraldehyde-3-phosphate dehydrogenase (Homo sapiens, UniProt P04406).
In another assay the test system is HT-1080. The assay is described as follows: cytotoxicity in HT1080 fibrosarcoma cells, cell-based, fluorescence readout (AID 620). The assay is classed as functional. To be noted: Homo sapiens.
Another assay is described as follows: cells. It counts as functional.
Assay [2] in a line: SNU-C1 cell viability reduction, dose response, CellTiter-Glo luminescence (AID 1117323). The assay is classed as functional, cell-based. In general terms: ATP-based viability assays read luminescence as a measure of living cells.
The nature of assay [3]: cytotoxicity in OVCAR4 cells, dose response, cytotoxicity control for PAX8 inhibitor project, cell-based, plate reader, dry powder, SA11 (AID 743150). The assay is classed as functional. To be noted: OVCAR-4.
Assay [4] is described as follows: cytotoxicity in COV434 cells, dose response, cytotoxicity control for PAX8 inhibitor project, cell-based, plate reader, dry powder, SA7 (AID 743145). It counts as functional.
The nature of assay [5]: Glucagon-like peptide 1 release potency, NCI-H716 cell line, dose-response, half-maximal inhibitory concentration (AID 1117344). It counts as functional, cell-based.
Assay [6] in a line: Concentration-dependent survival of SW480 colon cancer line, luminescence detection with CellTiter-Glo, half-maximal inhibitory concentration (AID 1117338). The assay is classed as functional.
In a further assay the test system is INS1. The assay is described as follows: beta cell apoptosis inhibitors, cytokine rescue, dose response, luminescence, retest (AID 449756).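 Note: cell death triggered by IL-1 beta plus TNF-alpha plus IFN-gamma mixture; protective hits raise ATP signal compared with cytokine alone wells.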 The assay is classed as functional, cell-based. To be noted: Rattus norvegicus.
The nature of assay [7]: HeLa 2N DNA content increase, dose response, cell-based, IC50 (AID 1117349). It counts as functional.
Assay [8] in a line: CellTiter-Glo luminescent dose response of DLD-1 viability loss (AID 1117352). The assay is classed as functional.
Assay [9] is described as follows: cytotoxicity in OV-90 ovarian cancer cells, dose response, PAX8 inhibitor project, cell-based, plate reader, dry powder, SA8 (AID 743149). The assay is classed as functional.
Assay [10] can be described thus: A2780 ovarian cancer cell cytotoxicity, dose response, cytotoxicity control, plate reader, dry powder samples (AID 743046). It counts as functional, cell-based.
Assay [11] can be described thus: PAX5 activity inhibitors, dose response, selectivity assay for PAX8 inhibitor project, cell-based, plate reader, dry powder samples (AID 743047).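 Note: HEK293 cells carrying a Pax5 driven CD19 promoter luciferase reporter; potency of inhibitors that lower reporter luminescence.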 It counts as functional.
Assay [12] is described as follows: cytotoxicity toward HT-29 cells – cell-based, CellTiter-Glo luminescence, IC50, dose response (AID 1117330). It counts as functional.
The nature of assay [13]: PAX2 cell-based inhibition, dose response, selectivity assay for PAX8 inhibitor project, plate reader, dry powder samples (AID 743048).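 Note: HEK293 cells carrying a WT1 promoter luciferase reporter driven by expressed Pax2; potency is for inhibition of Pax2 driven reporter signal.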 It counts as functional.
Assay [14] in a line: IGROV1 ovarian cancer cell cytotoxicity, dose response, PAX8 inhibitor project, plate reader, dry powder samples (AID 743043). The assay is classed as functional, cell-based. To be noted: IGROV-1.
Assay [15] in a line: half-maximal inhibitory concentration for glucagon-like peptide-1 release, STC-1 cell line, dose-response (AID 1117345). It counts as functional, cell-based.
Assay [16] is described as follows: cytotoxicity toward Colo320 cells – cell-based, CellTiter-Glo luminescence, IC50, dose response (AID 1117334). To be noted: COLO 320. It counts as functional.
Assay [17] in a line: cytotoxicity in COV362 ovarian cancer cells, dose response, cytotoxicity control for PAX8 inhibitor project, cell-based, plate reader, dry powder, SA12 (AID 743144). The assay is classed as functional.
A short description of assay [18]: cytotoxicity toward HCT116 cells – cell-based, CellTiter-Glo luminescence, IC50, dose response (AID 1117332). The assay is classed as functional. To be noted: HCT-116.
Assay [19] is described as follows: Dose-response inhibition of insulin secretion in a rat insulinoma line at 5 mM glucose (AID 1117331). To be noted: INS-1E. The assay is classed as functional, cell-based.
Assay [20] is described as follows: cytotoxicity dependent on PAX8, dose response, cell-based, plate reader, dry powder (AID 743049). The assay is classed as functional.
The nature of assay [21]: cytotoxicity toward NIH3T3 fibroblasts, dose response, counter-screen, cell-based, ATP luminescence, mouse fibroblasts (AID 2010).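 Note: cells exposed to compound for about 90 hours before reading.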 The assay is classed as functional. Background: Counterscreens check selectivity or assay interference.
A further assay relates to Vero. The assay is described as follows: cells. It counts as functional. To be noted: Chlorocebus sabaeus.
Assay [22] can be described thus: nonselective inhibitors of cellular cAMP signaling, dose response, counter-screen for MC4R biased antagonist project, cell-based, TR-FRET cAMP detection (AID 602305).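 Note: U2OS cells stimulated with forskolin near its EC80 as the cAMP inducer; potency is for inhibition of forskolin-stimulated cAMP signaling.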 The assay is classed as functional.
The nature of assay [23]: inhibitors of intracellular T. cruzi replication, confirmation, NIH3T3 host cells, beta-gal luminescence (AID 2044).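 Note: intracellular parasites grown in NIH/3T3 mouse fibroblasts as host cells; luminescent beta-galactosidase reporter signal from transgenic T. cruzi replicating inside host cells; inhibitors lower the luminescence signal.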 The assay is classed as functional, cell-based.
Assay [24] is described as follows: HeLa 4N DNA content increase, dose response, cell-based, IC50 (AID 1117351). The assay is classed as functional.
A short description of assay [25]: RKO cell viability reduction, dose response, CellTiter-Glo luminescence (AID 1117322). The assay is classed as functional.
Assay [26] is described as follows: NIH:OVCAR-3 ovarian cancer cell cytotoxicity, dose response, PAX8 inhibitor project, plate reader, dry powder samples (AID 743044). The assay is classed as functional, cell-based.
Assay [27] has as its target Heat shock protein HSP 90-alpha (Homo sapiens, UniProt P07900). The assay is described as follows: Luminescence-based dose response biochemical high throughput screening assay for inhibitors of the Heat Shock Protein 90 (HSP90). [Related pubchem assays: 1831 (Summary AID.), 1846 (Confirmation screen.), 1789 (Primary screen.)].

Sequence of Glyceraldehyde-3-phosphate dehydrogenase (P04406 whole entry): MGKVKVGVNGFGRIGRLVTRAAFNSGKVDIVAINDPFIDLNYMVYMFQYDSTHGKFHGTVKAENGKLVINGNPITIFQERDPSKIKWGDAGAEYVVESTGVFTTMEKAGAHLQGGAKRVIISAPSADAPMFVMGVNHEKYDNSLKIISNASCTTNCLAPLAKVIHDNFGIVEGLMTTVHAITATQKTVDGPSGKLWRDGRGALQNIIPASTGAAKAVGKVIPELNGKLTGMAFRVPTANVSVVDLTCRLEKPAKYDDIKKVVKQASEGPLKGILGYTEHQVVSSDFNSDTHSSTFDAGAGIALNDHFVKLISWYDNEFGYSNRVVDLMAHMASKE

For `CCOc1ccc(OCc2ccc(C(=O)OCc3ccccn3)o2)cc1`, the IC50 (commonly the concentration at which inhibition is half-maximal) in [1] was > 100 µM (not active); in the assay “cells” it was 36 µM (active). The EC50 (usually the concentration at which the effect is half-maximal) in the assay on HT-1080 is reported as > 50 µM (not active).

With `N=C(NCCCCCCNC(=N)NC(=N)Nc1ccc(Cl)cc1)NC(=N)Nc1ccc(Cl)cc1` [CHLORHEXIDINE], the concentration for half-maximal inhibition (IC50) is 0.439 µM (active) in assay [2]; 26.2 µM (inactive) in assay [5]; 5.67 µM (inactive) in assay [6]; > 10 µM (inactive) in assay [7]; 2.8 µM (active) in [8]; 3.79 µM (active) in assay [12]. The IC50 was 10.3 µM (inactive) in assay [15]; 5.16 µM (inactive) in [16]; 4.39 µM (active) in assay [18]; 25.2 µM (inactive) in [19]; 31.8 µM (inactive) in assay [22]; > 10 µM (inactive) in [24]. In addition, the 50% inhibitory concentration (IC50) in [25] was 4.58 µM (active). In addition, the concentration at half-maximal activity (AC50) (in general, the concentration at which the activity in the assay is half-maximal) is 33.9 µM (active) in assay [3]; 12.2 µM (active) in assay [4]; 4.67 µM (active) in the assay on INS1; 20 µM (active) in assay [9]; 13.9 µM (active) in [10]; 16.4 µM (active) in [11]. Also, the half-maximal activity concentration (AC50) is 13.6 µM (active) in assay [13]; 15.6 µM (active) in [14]; 21.6 µM (active) in [17]; 12.5 µM (active) in assay [20]; 13.8 µM (active) in assay [26]. Also, the half-maximal effective concentration (EC50) in assay [21] (nih3t3) was 6.74 µM (active); in assay [23] it was 0.178 µM (active). The half-maximal cytotoxic concentration (CC50) – broadly, the concentration at which the toxic effect on the cells reaches its halfway point – in the assay with Vero was 8.43 µM (active).

With `CC(=O)Nc1ccc(OS(=O)(=O)c2ccc([N+](=O)[O-])cc2)cc1`, in assay [27], the IC50 was 3.75 µM (active). The concentration giving a half-maximal response (EC50) in [21] (NIH3T3) is > 60 µM (not active); in [23] it was 1.56 µM (active).
